# Results published in publication PMC7516017, “Organoids to Study Intestinal Nutrient Transport, Drug Uptake and Metabolism – Update to the Human Model and Expansion of Applications” (Frontiers in Bioengineering and Biotechnology, 2020).
# Like-named read-outs stand apart in the source and are kept apart here.
# How the values were obtained:
# [1] = test system: sodium-proton exchangers (NHEs); assay: Live-cell imaging of intracellular pH after Gly-Sar with NHE inhibitors; format: cell-based, mouse; conditions: BCECF-AM, murine small intestinal organoids, 50mM Gly-Sar, 100µM Amilorid or 50µM S1611
# Experimental: (§1) Intestinal organoids – Transport & Metabolism […]
# (§2) addition of fructose. Following incubation, substrate/inhibitor solutions were removed from intact […]
# centrifuged (300g, 10min). For “broken up” organoids, dissociated organoids were centrifuged (300g, 3min) and washed three times with PBS. […]
# (§3) 1.8. Imaging of intracellular acidification
# (§4) 100µM Amilorid, and 50µM S1611 (Sanofi Aventis). Image series were captured using a Leica […]
# (§5) Calculations and imaging data […]
# (§6) intestinal Wt organoids or in human duodenal organoids.
# [2] = target: T1, Pept1 (Mus musculus, UniProt Q9JIP7); assay: Competition assay using radiolabeled Gly-Sar, murine small intestinal organoids (wild type and Pept1 knockout); format: in vitro ADME; conditions: 13mM cyclic hexapeptide (solubilized in DMSO) versus 5mM Gly-Sar (14C tracer 1mM); organoids from wild type and Pept1-deficient mice; HEPES-saline buffer pH 6.5, 37 °C; liquid scintillation; n = 5–6; Figure 2G
# T1 construct: endogenous in cells; host or cells: murine small intestinal organoids (C57BL/6 wild type; Pept1-/- organoids as control)
# T1 sequence (Q9JIP7 1-709): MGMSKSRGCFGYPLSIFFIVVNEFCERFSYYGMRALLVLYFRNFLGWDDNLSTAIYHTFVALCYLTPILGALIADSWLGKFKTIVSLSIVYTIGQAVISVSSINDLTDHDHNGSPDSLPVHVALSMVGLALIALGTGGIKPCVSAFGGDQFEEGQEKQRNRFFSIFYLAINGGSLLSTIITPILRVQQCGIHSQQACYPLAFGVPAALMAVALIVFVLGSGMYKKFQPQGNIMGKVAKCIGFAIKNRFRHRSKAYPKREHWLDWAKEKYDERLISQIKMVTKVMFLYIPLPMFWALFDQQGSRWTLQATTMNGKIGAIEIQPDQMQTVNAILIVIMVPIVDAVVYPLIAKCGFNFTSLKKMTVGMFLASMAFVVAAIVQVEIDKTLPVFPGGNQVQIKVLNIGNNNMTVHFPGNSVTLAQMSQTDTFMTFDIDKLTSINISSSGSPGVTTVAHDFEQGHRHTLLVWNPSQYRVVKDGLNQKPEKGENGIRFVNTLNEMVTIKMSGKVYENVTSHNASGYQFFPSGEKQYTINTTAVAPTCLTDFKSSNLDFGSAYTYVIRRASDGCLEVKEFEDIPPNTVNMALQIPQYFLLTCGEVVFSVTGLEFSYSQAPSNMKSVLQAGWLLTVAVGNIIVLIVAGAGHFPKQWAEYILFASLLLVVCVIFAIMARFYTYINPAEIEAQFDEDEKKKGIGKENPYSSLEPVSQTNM
# Experimental: as §1, §2
# (§7) centrifuged (300g, 10min). For “broken up” organoids, dissociated organoids were centrifuged (300g, 3min) and washed three times with PBS. During these steps, PBS for washing contained glucose and […]
# (§8) 3 ml of Bioscint® Scintillation […]
# (§9) organoids was quantified using a liquid scintillation counter (PerkinElmer). Residual amounts of all […]
# in dissolved organoids derived from the ileum.
# (§10) 1.7. Peptide and drug transport studies
# The protocol for peptide and
# (American Radiolabeled Chemicals). Final substrate concentrations used were: 5mM Gly-Sar […]
# Weinmüller and Horst Kessler, and solubilized in DMSO. Peptide transporter studies were performed […]
# as §3, §4, §5, §6
# [3] = test system: Caco-2; conditions: cited from earlier work
# Source text: (§11) As mentioned before, peptide transporters also play a role in drug uptake, including peptidomimetics. […] For example, peptidomimetics have been designed for cancer therapy, e.g., to induce apoptosis ([Walensky et al., 2004]), sensitize cancer cells to chemotherapeu ...
# [4] = target: T2, PEPT1 (Homo sapiens, UniProt P46059); assay: Competition assay using radiolabeled Gly-Sar, human duodenal organoids; conditions: HEPES-saline buffer pH 6.5, 37 °C, liquid scintillation, n = 5–6
# T2 sequence (P46059 1-708): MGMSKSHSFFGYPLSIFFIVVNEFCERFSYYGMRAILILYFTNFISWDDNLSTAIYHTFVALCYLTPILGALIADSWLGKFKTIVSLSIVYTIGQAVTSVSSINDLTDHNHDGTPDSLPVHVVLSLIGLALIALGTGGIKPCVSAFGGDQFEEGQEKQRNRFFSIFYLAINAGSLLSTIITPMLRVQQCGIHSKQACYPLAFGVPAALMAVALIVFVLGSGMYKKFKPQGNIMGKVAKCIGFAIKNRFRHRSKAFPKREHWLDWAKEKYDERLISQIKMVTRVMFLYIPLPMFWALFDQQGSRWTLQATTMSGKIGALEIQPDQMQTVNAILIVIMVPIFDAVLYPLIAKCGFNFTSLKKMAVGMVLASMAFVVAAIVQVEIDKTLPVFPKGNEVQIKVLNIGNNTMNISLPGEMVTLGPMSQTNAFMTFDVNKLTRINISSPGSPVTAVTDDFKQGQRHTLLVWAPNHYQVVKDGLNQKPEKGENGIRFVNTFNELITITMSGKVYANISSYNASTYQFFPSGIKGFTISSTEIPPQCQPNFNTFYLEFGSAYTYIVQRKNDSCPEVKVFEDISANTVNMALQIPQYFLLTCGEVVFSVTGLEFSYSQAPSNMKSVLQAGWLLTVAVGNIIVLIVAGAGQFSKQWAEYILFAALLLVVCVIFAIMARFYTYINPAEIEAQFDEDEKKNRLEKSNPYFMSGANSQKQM
# Experimental: Intestinal organoids – Transport & Metabolism fructose uptake assay. Inhibitors were added 10min prior to addition of glucose and 30min prior to addition of fructose. Following incubation, substrate/inhibitor solutions were removed from intact organoids embedded in matrigel and matrigel droplets were washed three times with PBS.
# Subsequently, matrigel was dissolved by addition of cold PBS and organoids were resuspended and centrifuged (300g, 10min). For “broken up” organoids, dissociated organoids were centrifuged (300g, 3min) and washed three times with PBS. During these steps, PBS for washing contained glucose and fructose, respectively, to avoid excessive transport of substrates out of the cells. Organoid pellets were resuspended in a lysis buffer containing 150mM NaCl, 50 mM Tris-HCl, 1% Igepal CA-630, 0.5% DCA and a protease inhibitor mix, and incubated for 20min on ice. 3 ml of Bioscint® Scintillation solution (National Diagnostics) were added to the cell lysate and radiolabeled substrate taken up by organoids was quantified using a liquid scintillation counter (PerkinElmer). […]
# 1.7. […]
# Transport activity was assessed by competitive inhibition of the uptake of radiolabeled dipeptide glycyl-sarcosin (Gly-Sar), a hydrolysis-resistant model substrate of Pept1. […]
# were assessed using (non-labeled) substrates (Gly-Sar) and 14C-radiolabeled substrate tracers (American Radiolabeled Chemicals). […]
# [5] = test system: human duodenal organoids; assay: Live-cell imaging of intracellular acidification (BCECF-AM), human organoids; format: cell-based; conditions: 40µM CCCP; for intracellular acidification: BCECF-AM 1μM, ratio F(λex490nm)/F(λex450nm), 50mM Gly-Sar, 50mM Gly-Gly, 5mM Cefadroxil, 50mM glucose, 50mM fructose as negative controls, minimum 6 experiments, representative courses
# Experimental: as §10
# For peptide and drug transport studies, human organoids were cultivated for 7-9 days after passaging. […]
# as §3
# For live-cell imaging of intracellular acidification, organoids were incubated with 1μM BCECF-AM (Life Technologies) in HEPES-saline buffer containing 0.01% pluronic F127, 375μM eserine and 2mM […]
# substances used were: 50mM Gly-Sar, 50mM Gly-Gly, 5mM Cefadroxil, 40µM CCCP (Sigma), 100µM Amilorid, and 50µM S1611 (Sanofi Aventis). Image series were captured using a Leica […]
# and the fluorescence ratio F(λex490nm)/ F(λex450nm) was calculated. Calculations and imaging data analyses were performed using the Leica Application Suite Advanced Fluorescence software. All imaging experiments were performed minimum 6 times and representative time courses are depicted in the manuscript. Imaging of intracellular acidification was performed as indicated in murine small intestinal Wt organoids or in human duodenal organoids.
# [6] = test system: human duodenal organoids; assay: Uptake of radiolabeled fructose with inhibitors/competitor; format: cell-based; conditions: 14C-fructose, 2.1mM D-fructose; 1mM Phloretin or Rubusoside or 2.1mM D-glucose as competitor; inhibitors added 30min prior; dissolved (broken up) organoids, 45 min 37 °C, pH 7.4; liquid scintillation; n = 5–6
# Experimental: (§12) Subsequently, medium was changed to CCM for 5 days. […]
# (§13) 1.6. Glucose and Fructose transport studies
# (§14) Grenoble, France) and transferred in tubes. After repeated (2x) centrifugation (200g, 5min) and […]
# indicated substrate/inhibitor for 45 min at 37 °C. Transporter ac tivities were assessed using (non- […]
# (§15) from Sigma) and 1mM Rubusoside (VWR, Avantor).
# as §1, §2, §7, §8, §9
# (§16) in dissolved organoids derived from the ileum. […]
# as §5, §6
# [7] = test system: human organoids derived from different regions of the small intestine; assay: Uptake of radiolabeled glucose with transporter inhibitors; format: cell-based; conditions: 14C-glucose, 5.8mM D-glucose; 1mM inhibitor added 10min prior; intact organoids in matrigel, HEPES-saline buffer pH 7.4, 30 min 37 °C; liquid scintillation; n = 5–6; Figure 2B
# Experimental: as §12, §13, §14
# Transporter ac tivities were assessed using (non- […]
# as §15, §1, §2, §7, §8, §9, §16, §5, §6
# [8] = humans; ref Becker et al., 2015; cited from earlier work
# Source text: as §11
compound,measurement,setting,value
N=C(N)NC(=O)c1nc(Cl)c(N)nc1N [Amiloride],recovery of intracellular pH following exposure to Gly-Sar,[1],prevented the recovery of intracellular pH to basal levels
same,course of intracellular pH in the observed time span after Gly-Sar,"[1]; Figures 3G,H",continuous influx of protons
C[C@@H]1NC(=O)[C@H](CC(=O)O)NC(=O)CNC(=O)[C@H](CCCNC(=N)N)NC(=O)[C@@H](C)N(C)C(=O)[C@H](C)N(C)C1=O [P2],peptide transporter-mediated uptake judged by competitive inhibition of radiolabeled Gly-Sar uptake,[2],actively transported independently of Pept1
same,permeability in Caco-2 assay,"[3]; ref Weinmuller et al., 2017",lacked permeability
C[C@@H]1NC(=O)[C@H](C)NC(=O)[C@@H](C)N(C)C(=O)[C@H](C)N(C)C(=O)[C@H](C)NC(=O)[C@H](C)NC1=O [P3],peptide transporter-mediated uptake judged by competitive inhibition of radiolabeled Gly-Sar uptake,[2],no signs of peptide transporter-mediated uptake
same,permeability in Caco-2 assay,"[3]; library of N-methylated alanine peptides, ref Ovadia et al., 2011",highly permeable
same,competitive inhibition of radiolabeled Gly-Sar uptake,"[4]; 13mM cyclic hexapeptide (solubilized in DMSO) versus 5mM Gly-Sar (14C tracer 1mM), human duodenal organoids, Figure 2H",significantly reduce radiolabeled Gly-Sar uptake
CC1=C(C(=O)O)N2C(=O)[C@@H](NC(=O)[C@H](N)c3ccc(O)cc3)[C@H]2SC1 [cefadroxil],intracellular acidification,[5],intracellular acidification was demonstrated
"O=C(CO)[C@@H](O)[C@H](O)[C@H](O)CO [fructose, D-fructose]",intracellular acidification,[5],neither glucose nor fructose (used as negative controls) led to an intracellular acidification
OC[C@H]1OC(O)[C@H](O)[C@@H](O)[C@@H]1O (stereo partly drawn) [glucose],intracellular acidification,[5],neither glucose nor fructose (used as negative controls) led to an intracellular acidification
same,effect on fructose transport,[6],diminished
O=C(CCc1ccc(O)cc1)c1c(O)cc(O)cc1O [phloretin],effect on fructose transport,[6],diminished
same,effect on glucose uptake,[7],"blunted glucose uptake, which was more pronounced"
O=C(CCc1ccc(O)cc1)c1c(O)cc(O)cc1O[C@@H]1O[C@H](CO)[C@@H](O)[C@H](O)[C@H]1O [phloridzin],effect on glucose uptake,[7],blunted glucose uptake
Cilengitide,half-life of excretion,[8],4 h
same,metabolic stability,[8],completely stable
carbonyl cyanide m-chlorophenyl hydrazine [CCCP],intracellular acidification,[5],intracellular acidification was demonstrated
same,"intracellular pH on stimulation subsequent to Gly-Sar, Gly-Gly and cefadroxil","[5]; BCECF-AM, human duodenal organoids, Supplementary Figure 3A",additional decline in intracellular pH
glycyl-glycine [Gly-Gly],intracellular acidification,[5],intracellular acidification was demonstrated
same,competitive inhibition of radiolabeled Gly-Sar uptake,"[4]; 5mM Gly-Gly versus 5mM Gly-Sar (14C tracer 1mM), intact and broken up human duodenal organoids",significant reduction of Gly-Sar uptake in both approaches
glycyl-sarcosin [Gly-Sar],intracellular acidification,[5],intracellular acidification was demonstrated
